From US5147878A, “Aminoalkoxyphenyl derivatives, process of preparation and compositions containing the same” (Sanofi, priority 1986, dated 1992)

Assays:
[1] = system: isoprenaline-induced acceleration in heart rate (anti-β effect); test: Antiadrenergic properties: anti-β effect (reduction of isoprenaline-induced tachycardia); assay type: in vivo; set-up: key to anti-β effect: +: for a reduction < 50%; ++: for a reduction ≥ 50%; +++: for a reduction sub-total (almost complete reduction); details: dog; for inhibition in vivo at 1 mg/kg: 1 mg/kg i.v.
Summary of the method: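 Pentobarbital-anaesthetized, atropinized dogs given isoprenaline (1–2 μg/kg, dose set per dog for ~70 beats/min rise) alternating with epinephrine every 10 min. After two reference responses, compound given intravenously; % reduction in isoprenaline tachycardia versus reference recorded.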

[2] = Acute toxicity, intravenous, Litchfield and Wilcoxon; details: mouse, in vivo, mice
Procedure: The acute toxicity of the compounds of the invention was determined intravenously in mice according to the method of Litchfield and Wilcoxon (J. Pharm. Exp. Therap. […], 96, 99).
The following results were obtained, expressed in the form of the LD50, compared with a benzoylindolizine derivative, in this case 2-ethyl-3-{4-[3-(di-n-butylamino)propyloxy]benzoyl}indolizine or butoprozine.

[3] = system: isolated rat aorta; test: Calcium inhibitory properties: contractile response to potassium-induced depolarization on isolated rat aorta; set-up: species or system isolated organ, male Wistar rats; details: for activity at 1 µM / activity at 0.1 µM / activity at 0.01 µM / activity at 0.001 µM: Rattus norvegicus, 1 h, read-out: % of the maximum contractional effect; for activity at 1 µM: 10^-6 M; for activity at 0.1 µM: 10^-7 M; for activity at 0.01 µM: 10^-8 M; for activity at 0.001 µM: 10^-9 M
Summary of the method: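 Male Wistar rat aorta strips under 2 g tension in modified Krebs-bicarbonate at 37° C, gassed with CO2/O2; contraction induced by 100 mM KCl potassium-Krebs. Compound incubated 60 min before repeat K+ depolarization; response expressed as % of maximum contraction before compound.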

[4] = system: epinephrine-induced increase in blood-pressure (anti-α effect); test: Antiadrenergic properties: anti-α effect (reduction of epinephrine-induced hypertension); assay type: in vivo; set-up: key to anti-α effect: +: for a reduction < 50%; ++: for a reduction ≥ 50%; +++: for a reduction sub-total (almost complete reduction); details: dog; for inhibition in vivo at 1 mg/kg: 1 mg/kg i.v.
Summary of the method: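 Pentobarbital-anaesthetised, atropinised dogs given an epinephrine dose of 3–10 μg/kg, titrated per animal to raise blood pressure about 133×10^2 Pa. After two reference responses, test compound given intravenously. Result is % reduction of epinephrine-induced hypertension versus reference.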

[5] = Canis lupus familiaris, iv, 5 mg/kg i.v.

With `CCCN(CCC)CCCOc1ccc(S(=O)(=O)c2c(CC)cn3ccccc23)cc1.Cl` [Ex. 7, 2-Ethyl-1-{4-[3-(di-n-propylamino)propyloxy]benzenesulphonyl}indolizine hydrochloride] the anti-β effect ([1]; 5 mg/kg i.v.) was “+++”, the LD50 [2] was 26 mg/kg and the activity at 1 µM [3] was 8.3%. For the same compound, the activity at 0.1 µM [3] was 60%, the Activity ratio ([3]; compound / Compound E) was 6.0 and the anti-α effect ([4]; 5 mg/kg i.v.) was “+++”.

In the case of `CCCCN(CCCC)CCCOc1ccc(S(=O)(=O)c2c(CC)cn3ccccc23)cc1C.Cl` [Ex. 9, 2-Ethyl-1-{4-[3-(di-n-butylamino)propyloxy]-3-methylbenzenesulphonyl}indolizine hydrochloride], the inhibition in vivo at 1 mg/kg ([1]; Canis lupus familiaris, iv) is reported as at least 50%, the LD50 [2] is reported as 55 mg/kg and the activity at 1 µM [3] is reported as 17.4%. The activity at 0.1 µM [3] was 57.2% and the inhibition in vivo at 1 mg/kg ([4]; Canis lupus familiaris, iv) was at least 50%.

With `CCCCN(CCCC)CCCOc1ccc(S(=O)(=O)c2c(CCC)cn3ccccc23)cc1.O=C(O)C(=O)O` [Ex. 11, 2-n-Propyl-1-{4-[3-(di-n-butylamino)propyloxy]benzenesulphonyl}indolizine oxalate] the inhibition in vivo at 1 mg/kg ([1]; Canis lupus familiaris, iv) was at least 50%, the LD50 [2] was 28 mg/kg and the activity at 1 µM [3] was 8.8%. The activity at 0.1 µM [3] was 37.7% and the inhibition in vivo at 1 mg/kg ([4]; Canis lupus familiaris, iv) was at least 50%.

In the case of `CCCCc1cn2ccccc2c1S(=O)(=O)c1ccc(OCCCN(CCCC)CCCC)cc1.O=C(O)C(=O)O` [Ex. 13, 2-n-Butyl-1-{4-[3-(di-n-butylamino)propyloxy]benzenesulphonyl}indolizine oxalate], the inhibition in vivo at 5 mg/kg [1, 5] is reported as at least 50%, the LD50 [2] is reported as 31 mg/kg and the activity at 1 µM [3] is reported as 39.8%. For the same compound, the Activity ratio ([3]; compound / Compound C) was 2.0 and the inhibition in vivo at 5 mg/kg [4, 5] was at least 50%.

Compound `CCCCN(CCCC)CCCOc1ccc(S(=O)(=O)c2c(-c3ccccc3)cn3ccccc23)cc1C.Cl` [Ex. 19, 2-Phenyl-1-{4-[3-(di-n-butylamino)propyloxy]-3-methylbenzenesulphonyl}indolizine hydrochloride] has an LD50 [2] of 60 mg/kg and an activity at 1 µM [3] of 77.2%.

`CCc1cn2ccccc2c1S(=O)(=O)c1ccc(OCCCN(C)CCc2ccc(OC)c(OC)c2)cc1` [Ex. 28, 2-Ethyl-1-[4-{3-[N-methyl-N-(3,4-dimethoxy-β-phenethyl)-amino]propyloxy}benzenesulphonyl]indolizine] showed an inhibition in vivo at 0.1 mg/kg ([1]; Canis lupus familiaris, iv, 0.1 mg/kg i.v.) of at least 50%, an LD50 [2] of 32 mg/kg and an activity at 0.1 µM [3] of 14.2%. The activity at 0.01 µM [3] was 60.2%, the activity at 0.001 µM [3] was 85.4% and the anti-α effect ([4]; 0.1 mg/kg i.v.) was “+++”.

With `COc1ccc(CCN(C)CCCOc2ccc(S(=O)(=O)c3c(C(C)C)cn4ccccc34)cc2)cc1OC` [Ex. 30, 2-Isopropyl-1-[4-{3-[N-methyl-N-(3,4-dimethoxy-β-phenethyl)amino]propyloxy}benzenesulphonyl]indolizine] the anti-β effect ([1]; 0.1 mg/kg i.v.) was “+++”, the LD50 [2] was 140 mg/kg and the activity at 0.1 µM [3] was 9.4%. For the same compound, the activity at 0.01 µM [3] was 40.1%, the activity at 0.001 µM [3] was 81.7% and the anti-α effect ([4]; 0.1 mg/kg i.v.) was “+++”.
